The record followed here is patent US10370438B2, “Histamine-releasing factor (HRF), HRF-receptor and methods of modulating inflammation” (LA JOLLA INSTITUTE FOR ALLERGY AND IMMUNOLOGY, priority 2010, dated 2019).

Entries after “also recorded” stand apart in the source; their conditions may differ.

One data set deals with BALB/c mice. The data set can be described thus: Aspergillus fumigatus allergen-induced airway inflammation model. It is filed as in vivo, mouse. The conditions noted are these: intranasal 200 ug/50 ul, 30 min before each immunization from the second week.
The test system of a further data set is C57BL/6 mice. The data set can be described thus: OVA-induced mast cell-dependent airway inflammation model. It is filed as in vivo, mouse. The procedure:
Mice were sensitized with OVA (10 μg in 0.1 ml saline) at days 0, 7, 14, 21, 28, and 35. Sensitized mice were challenged with OVA (20 μg in 20 μl saline) at days 40, 43 and 46. Some mice were pretreated with GST, GST-N19 (400 μg in PBS), or N19 peptide (40 μg in 2% DMSO-containing PBS) 15 minutes before OVA challenge. Twenty-four hours after the last challenge, lung function in response to methacholine was tested using FlexiVent system (SCIREQ Scientific Respiratory Equipment). Mice were sacrificed and plasma, BAL fluids, and lung tissues were collected. Cells in BAL fluids were counted, and specific cell numbers were calculated after May-Giemsa staining of Cytospin preparations. Immunofluorescence microscopy was performed on membrane-permeabilized and non-permeabilized lung tissues. For staining of lung tissues by staining of H&E and periodic acid-Schiff (PAS), lung tissues were fixed with formalin and embedded in paraffin. For measurement of cytokine levels in lung tissues, lung homogenates were prepared (Oyoshi et al., Immunol. 120:303 (2007)) and cytokines quantified by ELISA. HRF in lung homogenates and plasma was SDS-PAGE and immunoblotting with anti-HRF Ab (Santa Cruz Biotechnology).
Asthma is a type 2 helper T cell-driven, chronic inflammatory lung disease (Wills-Karp, Annu Rev Immunol 17, 255 (1999)). To study HRF involvement in allergic airway inflammation, an airway inflammation model was utilized, in which mast cells are implicated in amplifying antigen-dependent chronic inflammation (Williams, et al., J Exp Med 192, 455 (Aug. 7, 2000)). C57BL/6 mice were first sensitized with OVA (10 μg) at days 0, 7, 14, 21, 28 and 35. At days 40, 43 and 46, mice were intranasally challenged with OVA (20 μg) or PBS. Some mice were intranasally pretreated with GST or GST-N19 (400 μg) before every OVA challenge. Twenty-four hours after the last challenge, mice were sacrificed and BAL fluids and lung tissues were collected. Lung tissues were homogenized.

In another data set the test system is mice. The data set can be described thus: T cell-dependent/mast cell-independent airway inflammation model (OVA with alum). It is filed as in vivo, mouse. Particulars: mice immunized with OVA with alum and challenged with OVA.
Another data set relates to HRF/IgG binding. The data set can be described thus: Inhibition of HRF/IgG binding. More on the design: species or system mouse. The procedure:
(§1) To identify an inhibitor of HRF/Ig interactions to dissect the extracellular function (═HRF function as a cytokine) separate from the intracellular functions in vivo settings, the major Ig-interacting HRF sequence was studied as a specific inhibitor of HRF/Ig interactions. IgE molecules were incubated in GST-mHRF-coated wells in the presence or absence (−) of the indicated concentrations of competitors, GST-N19, GST-mHRF or mHRF-His6 for 2 hours. After incubation, bound-IgE was detected by incubation with biotinylated anti-mouse IgE mAb, followed by streptavidin-HRP. […] By contrast, none of the shorter mHRF peptides tested (residues 1-6, 1-12, 5-19, and 9-19) inhibited HRF/IgE binding. GST-N19 inhibited HRF/IgG binding as well.

A further data set concerns BMMCs. It is filed as cell-based, mouse.
The test system of another data set is CHO-K1 cells. Particulars: 800 nM H2O2, 2 days. On the procedure: (§2) To analyze the effect of GST-N19 on intracellular functions of HRF/TCTP, the indicated cells were cultured in the absence (−) or presence of the indicated concentrations of GST or GST-N19 for 2 days, and live cells were counted in the presence of Trypan blue. […] The usual dose of HRF to stimulate basophils is 1.6-5 μM (Langdon, et al., J Leukoc Biol 84, 1151 (October, 2008)). Apoptosis was induced by growth factor withdrawal, IL-3 depletion, in BMMCs for 3 days and by 800 nM H2O2 in CHO-K1 cells for 2 days, and live cells were counted.

Data set [1] has as its system CHO-K1 (Chinese hamster ovary cell). Particulars: CHO-K1, 3.6 or 36 μM, 2 days. The procedure:
as §2

For the next data set, the system named is WT mice. Nature of the data set: IgE/antigen-induced PCA with GST-N19 ear injection. It is filed as in vivo, mouse. The procedure: Mouse ears were first sensitized with 0.5 μg anti-TNP (C38-2 in the right ear and C48-2 in the left ear) IgE. After 24 hours, Evans' blue dye was intravenously (i.v.) injected, and TNP26-BSA (Ag: 0.1 μg) or mHRF-His6 (10 μg) were immediately injected into the ears. The acute (30 minute) reactions were analyzed by measurement of Evans' blue dye leakage. The ear thickness was measured using a micrometer (Mitutoyo) at 0.5, 1, 2, 4, 6, 8, 12, and 24 hours after mHRF-His6challenge. As a negative control, saline was injected into the ears in place of antigen or HRF challenge. IgG-mediated response was performed by sensitization with 2 μg IgG1 (in place of anti-TNP IgE) and challenge with anti-mouse IgG1 Ab (0.6 μg: Southern Biotechnology, in place of TNP26-BSA). Engraftmanet of Kit^W-sh/W-sh mice with BMMCs was performed 6 weeks before study (Nakano, T., et al. J Exp Med 162:1025-1043 (1985)). In some studies, mice were sensitized and stimulated as described above but without Evans blue.
To study HRFs involvement in IgE/antigen-induced PCA reactions, WT mice were overnight sensitized the IgE. Left ears were injected with GST and the right ears were injected with GST-N19, and then TNP26-BSA were injected in both ears. Ear thickness was measured over a 10 hour period. *, **, ***: p<0.05, p<0.01, p<0.001 by Student's t-test. […]

Another data set relates to HRF/IgE binding. Nature of the data set: Competition ELISA of IgE binding to GST-mHRF-coated wells. Set-up: species or system mouse. On the procedure: as §1

For the substance “GST-N19: GST fusion protein encoding the first 19 residues of mHRF; inhibitor of HRF/Ig interactions”, the Airway inflammation result in the data set with BALB/c mice is listed as “efficacy of GST-N19 was confirmed; also recorded: inhibits”. Moreover, the “Inflammatory cells, particularly eosinophils and neutrophils, in BAL fluids” value in the data set with C57BL/6 mice (400 μg before every OVA challenge) is on record as “reduced”. The “Inflammatory cells and goblet cell hyperplasia in the lung” value in the data set on C57BL/6 mice (H&E and PAS staining) is reported as “reduced”. In addition, in the data set on C57BL/6 mice (OVA-immunized/OVA-challenged mice), the HRF in plasma result was “reduced”. Further, the Airway inflammation result in the data set on C57BL/6 mice (intranasal pretreatment before each OVA challenge) is “abrogated”. In addition, in the data set on C57BL/6 mice (lung homogenates, ELISA), the “Production of IL-5 in lung tissues” value is on record as “drastically decreased” and the “Production of IL-13 in lung tissues” value is reported as “drastically decreased; also recorded: suppression”. In addition, in the data set on C57BL/6 mice (mouse, in vivo), the “HRF-reactive IgG levels in plasma” value was “not affected”, the “OVA-specific IgE levels in plasma” value was “not affected”, the “OVA-specific IgG1 levels in plasma” value is recorded as “not affected” and the “OVA-specific IgG2a levels in plasma” value is on record as “not affected”. Also, the “Airway hyper-responsiveness (AHR)” value with C57BL/6 mice (response to methacholine) was “inhibited”. Besides, in the data set with mice, the Airway inflammation entry is reported as “failed to inhibit; also recorded: does not inhibit”. Moreover, the “Inhibition of HRF/IgG binding” value in the data set with HRF/IgG binding was “inhibited”. Besides, the “Effects on mast cell growth and apoptosis” value in the data set with BMMCs is “absence of GST-N19 effects”. Moreover, the “Live cells after induced apoptosis” value in the data set with CHO-K1 cells is “not affected”. Further, the Viability or proliferation entry in [1] is given as “did not affect”. Moreover, the “PCA (ear thickness)” value in the data set on WT mice (HRF-nonreactive IgE-induced PCA) is recorded as “insensitive”. In the data set on WT mice (HRF-reactive IgE-induced PCA, TNP26-BSA challenge), the “Acute reactions and LPR (ear thickness)” value is given as “significantly reduced”. Further, the “Potency of inhibition of IgE binding relative to full-length HRF competitors” value in the data set on HRF/IgE binding was “potency similar to that shown by GST-mHRF and mHRF-His6”. Moreover, the “Inhibition of IgE binding to immobilized GST-mHRF” value in the data set on HRF/IgE binding (competitor incubated 2 hours) is on record as “inhibited”.
